Here are results for 20 molecules from patent US8293770B2, “Pyrrolidine derivatives as NK-3 receptor antagonists” (Hoffmann-La Roche Inc., priority 2008, dated 2012).

This test has as its target T1, recombinant human NK3 receptor (Homo sapiens, UniProt P29371).
T1 construct: expressed in transfected cells; host or cells: HEK293 cells (transient expression), membranes
T1 sequence (P29371 1-465): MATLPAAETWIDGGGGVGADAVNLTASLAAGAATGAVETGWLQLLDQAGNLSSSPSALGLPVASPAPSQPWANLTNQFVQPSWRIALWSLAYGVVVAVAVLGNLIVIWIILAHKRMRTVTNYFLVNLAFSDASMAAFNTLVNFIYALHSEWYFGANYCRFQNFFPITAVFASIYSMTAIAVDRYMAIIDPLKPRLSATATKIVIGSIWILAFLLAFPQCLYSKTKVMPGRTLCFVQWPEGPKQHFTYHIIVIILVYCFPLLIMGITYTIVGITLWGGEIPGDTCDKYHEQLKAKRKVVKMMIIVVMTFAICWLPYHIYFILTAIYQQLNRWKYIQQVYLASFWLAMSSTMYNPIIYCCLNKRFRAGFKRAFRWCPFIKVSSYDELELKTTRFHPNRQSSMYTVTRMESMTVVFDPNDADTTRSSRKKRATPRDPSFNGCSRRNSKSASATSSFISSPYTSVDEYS
Description: [3H]SR142801 competition binding assay. Conditions: hNK3 receptor binding, [3H]SR142801, membranes from HEK293 cells transiently expressing recombinant human NK3 receptor. As for the experimental part: [^3H]SR142801 competition binding assay
hNK3 receptor binding experiment were performed using [^3H]SR142801 (Catalog No. TRK1035, specific activity: 74.0 Ci/mmol, Amersham, GE Healthcare UK limited, Buckinghamshire, UK) and membrane isolated from HEK293 cells transiently expressing recombinant human NK3 receptor. After thawing, the membrane homogenates were centrifuged at 48,000×g for 10 min at 4° C., the pellets were resuspended in the 50 mM Tris-HCl, 4 mM MnCl2, 1 μM phosphoramidon, 0.1% BSA binding buffer at pH 7.4 to a final assay concentration of 5 μg protein/well. […] At the end of the incubation, membranes were filtered onto unitfilter (96-well white microplate with bonded GF/C filter preincubated 1 h in 0.3% PEI+0.3% BSA, Packard BioScience, Meriden, Conn.) with a Filtermate 196 harvester (Packard BioScience) and washed 4 times with ice-cold 50 mM Tris-HCl, pH 7.4 buffer. Nonspecific binding was measured in the presence of 10 μM SB222200 for both radioligands. The radioactivity on the filter was counted (5 min) on a Packard Top-count microplate scintillation counter with quenching correction after addition of 45 μl of microscint 40 (Canberra Packard S. A., Zürich, Switzerland) and shaking for 1 h. Inhibition curves were fitted according to the Hill equation: y=100/(1+(x/IC50)^nH), where nH=slope factor using Excel-fit 4 software (Microsoft). IC50 values were derived from the inhibition curve and the affinity constant (Ki) values were calculated using the Cheng-Prussoff equation Ki=IC50/(1+[L]/KD) where [L] is the concentration of radioligand and KD is its dissociation constant at the receptor, derived from the saturation isotherm. All experiments were performed in duplicate and the mean±standard error (SEM) of the individual Ki values was calculated.
What is called Ki is a measure of affinity in units of concentration, obtained from inhibition or displacement. For `CN(Cc1ccc(C(F)(F)F)c(F)c1)[C@H]1CN(C(=O)c2ccc(N3CCOCC3)cc2)C[C@@H]1c1ccc(Cl)c(Cl)c1` (racemic) [Example 38, {(3SR,4RS)-3-(3,4-Dichloro-phenyl)-4-[(3-fluoro-4-trifluoromethyl-benzyl)-methyl-amino]-pyrrolidin-1-yl}-(4-morpholin-4-yl-phenyl)-methanone], the Ki is 9 nM.
As for `CN(Cc1ccc(C(F)(F)F)c(F)c1)[C@H]1CN(C(=O)c2ccc(C#N)nc2)C[C@@H]1c1ccc(Cl)c(Cl)c1` (racemic) [Example 26, 5-{(3SR,4RS)-3-(3,4-Dichloro-phenyl)-4-[(3-fluoro-4-trifluoromethyl-benzyl)-methyl-amino]-pyrrolidine-1-carbonyl}-pyridine-2-carbonitrile], the figure is 14.8 nM.
The same measure for `CN(Cc1ccc(C(F)(F)F)c(F)c1)[C@H]1CN(C(=O)c2ccc3nc[nH]c3c2)C[C@@H]1c1ccc(Cl)c(Cl)c1` (racemic) [Example 60, (3H-Benzoimidazol-5-yl)-{(3SR,4RS)-3-(3,4-dichloro-phenyl)-4-[(3-fluoro-4-trifluoromethyl-benzyl)-methyl-amino]-pyrrolidin-1-yl}-methanone]: 17.3 nM; for `CN(Cc1ccc(C(F)(F)F)c(F)c1)[C@H]1CN(C(=O)c2ccc(C#N)cc2)C[C@@H]1c1ccc(Cl)c(Cl)c1` (racemic) [Example 6, 4-{(3SR,4RS)-3-(3,4-Dichloro-phenyl)-4-[(3-fluoro-4-trifluoromethyl-benzyl)-methyl-amino]-pyrrolidine-1-carbonyl}-benzonitrile]: 20.9 nM; for `CN(Cc1ccc(C(F)(F)F)c(F)c1)[C@H]1CN(C(=O)c2ccc(N3CCCS3(=O)=O)cc2)C[C@@H]1c1ccc(Cl)c(Cl)c1` (racemic) [Example 42, {(3SR,4RS)-3-(3,4-Dichloro-phenyl)-4-[(3-fluoro-4-trifluoromethyl-benzyl)-methyl-amino]-pyrrolidin-1-yl}-[4-(1,1-dioxo-1-6-isothiazolidin-2-yl)-phenyl]-methanone]: 33.5 nM.
The same measure for `CN(Cc1ccc(C(F)(F)F)cc1)[C@H]1CN(C(=O)c2ccc(C#N)cc2)C[C@@H]1c1ccc(Cl)c(Cl)c1` (racemic) [Example 68, 4-{(3SR,4RS)-3-(3,4-Dichloro-phenyl)-4-[methyl-(4-trifluoromethyl-benzyl)-amino]-pyrrolidine-1-carbonyl}-benzonitrile]: 14.6 nM.
Take `CN(Cc1ccc(C(F)(F)F)c(F)c1)[C@H]1CN(C(=O)c2ccc(C#N)cc2F)C[C@@H]1c1ccc(Cl)c(Cl)c1` (racemic) [Example 19, 4-{(3SR,4RS)-3-(3,4-Dichloro-phenyl)-4-[(3-fluoro-4-trifluoromethyl-benzyl)-methyl-amino]-pyrrolidine-1-carbonyl}-3-fluoro-benzonitrile]: the inhibitory constant (Ki) is 12.9 nM.
Regarding `CN(Cc1ccc(C(F)(F)F)c(F)c1)[C@H]1CN(C(=O)c2ccc(-c3nnco3)cc2)C[C@@H]1c1ccc(Cl)c(Cl)c1` (racemic) [Example 47, {(3SR,4RS)-3-(3,4-Dichloro-phenyl)-4-[(3-fluoro-4-trifluoromethyl-benzyl)-methyl-amino]-pyrrolidin-1-yl}-(4-[1,3,4]oxadiazol-2-yl-phenyl)-methanone], the Ki was 2.3 nM.
Turning to `CN(Cc1ccc(C(F)(F)F)c(F)c1)[C@H]1CN(C(=O)c2ccc(N3CCOCC3)nc2)C[C@@H]1c1ccc(Cl)c(Cl)c1` (racemic) [Example 27, {(3SR,4RS)-3-(3,4-Dichloro-phenyl)-4-[(3-fluoro-4-trifluoromethyl-benzyl)-methyl-amino]-pyrrolidin-1-yl}-(6-morpholin-4-yl-pyridin-3-yl)-methanone], the Ki was 5.7 nM.
As to `CN(Cc1ccc(C(F)(F)F)c(F)c1)[C@H]1CN(C(=O)c2ccc(-n3cccn3)nc2)C[C@@H]1c1ccc(Cl)c(Cl)c1` (racemic) [Example 30, {(3SR,4RS)-3-(3,4-Dichloro-phenyl)-4-[(3-fluoro-4-trifluoromethyl-benzyl)-methyl-amino]-pyrrolidin-1-yl}-(6-pyrazol-1-yl-pyridin-3-yl)-methanone], the Ki came out at 2.8 nM.
As for `CN(Cc1ccc(C(F)(F)F)c(F)c1)[C@H]1CN(C(=O)c2ccc3cnccc3n2)C[C@@H]1c1ccc(Cl)c(Cl)c1` (racemic) [Example 51, {(3SR,4RS)-3-(3,4-Dichloro-phenyl)-4-[(3-fluoro-4-trifluoromethyl-benzyl)-methyl-amino]-pyrrolidin-1-yl}-[1,6]naphthyridin-2-yl-methanone], the figure is 14.6 nM.
As for `CN(Cc1ccc(C(F)(F)F)c(F)c1)[C@H]1CN(C(=O)c2ccc(-c3ccccn3)cc2)C[C@@H]1c1ccc(Cl)c(Cl)c1` (racemic) [Example 43, {(3SR,4RS)-3-(3,4-Dichloro-phenyl)-4-[(3-fluoro-4-trifluoromethyl-benzyl)-methyl-amino]-pyrrolidin-1-yl}-(4-pyridin-2-yl-phenyl)-methanone], the inhibitory constant (Ki) turned out to be 5.1 nM.
Regarding `CN(Cc1ccc(C(F)(F)F)c(F)c1)[C@H]1CN(C(=O)c2ccc(F)nc2)C[C@@H]1c1ccc(Cl)c(Cl)c1` (racemic) [Example 28, {(3SR,4RS)-3-(3,4-Dichloro-phenyl)-4-[(3-fluoro-4-trifluoromethyl-benzyl)-methyl-amino]-pyrrolidin-1-yl}-(6-fluoro-pyridin-3-yl)-methanone], the inhibitory constant (Ki) was found to be 35.6 nM.
As for `CC(=O)Nc1ccc(C(=O)N2C[C@H](c3ccc(Cl)c(Cl)c3)[C@@H](N(C)Cc3ccc(C(F)(F)F)c(F)c3)C2)cc1` (racemic) [Example 61, N-(4-{(3SR,4RS)-3-(3,4-Dichloro-phenyl)-4-[(3-fluoro-4-trifluoromethyl-benzyl)-methyl-amino]-pyrrolidine-1-carbonyl}-phenyl)-acetamide], the figure is 37.3 nM; as for `CN(Cc1ccc(C(F)(F)F)c(F)c1)[C@H]1CN(C(=O)c2ccc(-c3cccnc3)cc2)C[C@@H]1c1ccc(Cl)c(Cl)c1` (racemic) [Example 44, {(3SR,4RS)-3-(3,4-Dichloro-phenyl)-4-[(3-fluoro-4-trifluoromethyl-benzyl)-methyl-amino]-pyrrolidin-1-yl}-(4-pyridin-3-yl-phenyl)-methanone], 5.6 nM.
In the case of `CN(Cc1ccc(C(F)(F)F)c(F)c1)[C@H]1CN(C(=O)c2ccc(S(C)(=O)=O)cc2)C[C@@H]1c1ccc(Cl)c(Cl)c1` (racemic) [Example 22, {(3SR,4RS)-3-(3,4-Dichloro-phenyl)-4-[(3-fluoro-4-trifluoromethyl-benzyl)-methyl-amino]-pyrrolidin-1-yl}-(4-methanesulfonyl-phenyl)-methanone], the inhibition constant (Ki) was 30.2 nM.
The same measure for `COc1ccc(C(=O)N2C[C@H](c3ccc(Cl)c(Cl)c3)[C@@H](N(C)Cc3ccc(C(F)(F)F)c(F)c3)C2)cn1` (racemic) [Example 29, {(3SR,4RS)-3-(3,4-Dichloro-phenyl)-4-[(3-fluoro-4-trifluoromethyl-benzyl)-methyl-amino]-pyrrolidin-1-yl}-(6-methoxy-pyridin-3-yl)-methanone]: 8.4 nM; for `CN(Cc1ccc(C(F)(F)F)c(F)c1)[C@H]1CN(C(=O)c2ccc(-c3cnco3)cc2)C[C@@H]1c1ccc(Cl)c(Cl)c1` (racemic) [Example 67, {(3SR,4RS)-3-(3,4-Dichloro-phenyl)-4-[(3-fluoro-4-trifluoromethyl-benzyl)-methyl-amino]-pyrrolidin-1-yl}-(4-oxazol-5-yl-phenyl)-methanone]: 4.5 nM; for `CC(=O)c1ccc(C(=O)N2C[C@H](c3ccc(Cl)c(Cl)c3)[C@@H](N(C)Cc3ccc(C(F)(F)F)c(F)c3)C2)cc1` (racemic) [Example 24, 1-(4-{(3SR,4RS)-3-(3,4-Dichloro-phenyl)-4-[(3-fluoro-4-trifluoromethyl-benzyl)-methyl-amino]-pyrrolidine-1-carbonyl}-phenyl)-ethanone]: 6.8 nM.
In the case of `CN(Cc1ccc(C(F)(F)F)c(F)c1)[C@H]1CN(C(=O)c2ccc(O)nc2)C[C@@H]1c1ccc(Cl)c(Cl)c1` (racemic) [Example 48, {(3SR,4RS)-3-(3,4-Dichloro-phenyl)-4-[(3-fluoro-4-trifluoromethyl-benzyl)-methyl-amino]-pyrrolidin-1-yl}-(6-hydroxy-pyridin-3-yl)-methanone], the Ki was found to be 47.8 nM.
